The source of these data is ChEMBL document CHEMBL1201862, “PubChem BioAssay data set” (2004).

SMILES strings stand for the structures.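 Cultured in 96-well plates, cells were exposed to test compound for 48 hours across five concentrations. The concentration for 50% growth inhibition is given as GI50.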 Active and inactive are the calls of the source. Rule as the data show it: active = GI50 up to about 1.1 µM and inactive = higher.

Holding throughout (assay): DTP human tumour cell line panel, 48 h
Experiment [1] concerns NCI-H226.
Experiment [2] has as its system Hs-578T.
Experiment [3] concerns SK-MEL-2.
Experiment [4] deals with DU-145.
Experiment [5] relates to HL-60.
Experiment [6] relates to HCT-116.
For experiment [7], the system named is MCF7.
Experiment [8] has as its system BT-549.
Experiment [9] deals with SNB-19.
The subject of experiment [10] is OVCAR-5.
The subject of experiment [11] is KM12.
For experiment [12], the system named is CAKI-1.
The test system of experiment [13] is M14.
Experiment [14] relates to UACC-62.
In experiment [15] the test system is NCI/ADR-RES.
For experiment [16], the system named is TK-10.
Experiment [17] concerns MOLT-4.
Experiment [18] concerns EKVX.
Experiment [19] concerns K562.
In experiment [20] the test system is HT-29.

What is called GI50 is the concentration that inhibits growth by half. For `COc1cccc(CCNc2c(C#N)c3nc4ccccc4n3c3ccccc23)c1`, the GI50 in experiment [1] was 1.58 µM (inactive); in [2], 0.498 µM (active); in [3], > 41.6 µM (inactive); in experiment [4], 2.29 µM (inactive); in [5] it was 0.34 µM (active); in experiment [6], 0.405 µM (active). For the same molecule, the GI50 in [7] was 0.0775 µM (active); in experiment [8], 0.618 µM (active); in [9], 0.787 µM (active); in experiment [10] it was 7 µM (inactive); in experiment [11], 0.258 µM (active); in [12], 1.05 µM (active). Besides, the GI50 in experiment [13] is 4.23 µM (inactive); in experiment [14] it was 0.316 µM (active); in [15], 0.333 µM (active); in experiment [16], 4.6 µM (inactive); in experiment [17], 0.769 µM (active); in experiment [18], 2.09 µM (inactive). The values for the GI50 in experiment [19] and in experiment [20] were 0.141 µM (active) and 0.337 µM (active), respectively.

On to `CC(C)C(=O)/C=C/c1c(Cl)cccc1Cl`, for which the GI50 in experiment [1] was 2.33 µM (inactive); in [2] it was 2.35 µM (inactive); in experiment [3], 2.25 µM (inactive); in experiment [4], 3.51 µM (inactive); in experiment [5], 5.36 µM (inactive); in [6], 1.64 µM (inactive). Moreover, the GI50 in experiment [7] was 3.76 µM (inactive); in experiment [8], 2.64 µM (inactive); in experiment [9], 10.8 µM (inactive); in experiment [10] it was 3.21 µM (inactive); in [11], 2.85 µM (inactive); in experiment [12] it was 3.47 µM (inactive). The GI50 is 2.61 µM (inactive) in [13]; 6.35 µM (inactive) in experiment [14]; 3.04 µM (inactive) in [15]; 12.1 µM (inactive) in [16]; 4.63 µM (inactive) in experiment [17]; 13.3 µM (inactive) in [18]. The GI50 is 9.35 µM (inactive) in experiment [19] and 2.84 µM (inactive) in experiment [20].

As to `N=C(N)NS(=O)(=O)c1ccc(NNC(=O)c2cccc3c(O)c4ccccc4nc23)cc1`, the GI50 is 25.5 µM (inactive) in experiment [1]; 63.2 µM (inactive) in experiment [2]; 25.1 µM (inactive) in [3]; 32.7 µM (inactive) in experiment [4]; 27 µM (inactive) in experiment [5]; 24.5 µM (inactive) in experiment [6]. The GI50 in experiment [7] was 16.3 µM (inactive); in [8], 21.7 µM (inactive); in experiment [9], 48.6 µM (inactive); in experiment [10] it was 42.6 µM (inactive); in experiment [11], 21.8 µM (inactive); in [12] it was 34.6 µM (inactive). In addition, the GI50 is 17.4 µM (inactive) in experiment [13]; 30.3 µM (inactive) in experiment [14]; 38.3 µM (inactive) in experiment [15]; 44.8 µM (inactive) in [16]; 30.2 µM (inactive) in experiment [17]; 23.4 µM (inactive) in [18]. Besides, the GI50 in experiment [19] is 24 µM (inactive); in [20] it was 21.6 µM (inactive).

Consider `CCN1C/C(=C\c2cc(OC)c(OC)c(OC)c2)C2=NN(c3ccccc3)C(c3cc(OC)c(OC)c(OC)c3)C2C1` (stereo not given), for which the GI50 in [1] was 4.68 µM (inactive); in [2], 0.34 µM (active); in experiment [3], 6.84 µM (inactive); in [4], 2.99 µM (inactive); in experiment [5], 3.03 µM (inactive); in [6], 1.89 µM (inactive). The GI50 in experiment [7] is 6 µM (inactive); in experiment [8], 6.75 µM (inactive); in experiment [9] it was 1.97 µM (inactive); in [10], 2.84 µM (inactive); in [11] it was 4.34 µM (inactive); in experiment [12], 0.91 µM (active). Further, the GI50 in experiment [13] was 1.7 µM (inactive); in experiment [14], 20.1 µM (inactive); in experiment [15], 1.43 µM (inactive); in experiment [16] it was 1.65 µM (inactive); in experiment [17], 5.05 µM (inactive); in experiment [18] it was 2.09 µM (inactive). For the same molecule, the figures for the GI50 in experiment [19] and in [20] were 1.65 µM (inactive) and 2.07 µM (inactive), respectively.

With `CC(C)(C)C1=CC(=C2C=Cc3cc(O)ccc3O2)C=C(C(C)(C)C)C1=O`, the GI50 in [1] was 1.85 µM (inactive); in experiment [2], 2.27 µM (inactive); in [3], 1.63 µM (inactive); in experiment [4] it was 1.45 µM (inactive); in experiment [5], 1.08 µM (active); in experiment [6] it was 1.17 µM (inactive). For the same molecule, the GI50 in [7] is 1.07 µM (active); in experiment [8], 1.79 µM (inactive); in experiment [9], 1.77 µM (inactive); in experiment [10] it was 2.13 µM (inactive); in experiment [11], 1.58 µM (inactive); in experiment [12], 1.62 µM (inactive). The GI50 in experiment [13] was 1.69 µM (inactive); in experiment [14] it was 1.38 µM (inactive); in experiment [15], 1.95 µM (inactive); in experiment [16], 1.7 µM (inactive); in experiment [17], 0.435 µM (active); in experiment [18], 1.85 µM (inactive). The GI50 in experiment [19] is 2.13 µM (inactive); in experiment [20], 1.65 µM (inactive).

For the molecule `CC1CC[C@@]2(OC1)O[C@H]1C[C@H]3[C@@H]4CC[C@H]5C[C@@H](OC6OC(CO)C(OC7OC(CO)C(OC8OC(CO)C(O)C(OC9OC(C)C(OC%10OC(C)C(O)C(O)C%10O)C(O)C9O)C8OC8OCC(O)C(O)C8O)C(O)C7O)C(O)C6O)CC[C@]5(C)[C@H]4CC(=O)[C@]3(C)[C@H]1[C@@H]2C` (stereo not given in full), the GI50 in [1] is 18.8 µM (inactive); in [2], 24.2 µM (inactive); in [3] it was 16.1 µM (inactive); in experiment [4], 19.9 µM (inactive); in experiment [5] it was 12.9 µM (inactive); in [6] it was 23.4 µM (inactive). Also, the GI50 in experiment [7] was 17.7 µM (inactive); in experiment [8], 20.9 µM (inactive); in experiment [9], 20.5 µM (inactive); in experiment [10] it was 20.8 µM (inactive); in experiment [11], 18.2 µM (inactive); in experiment [12], 15.6 µM (inactive). Also, the GI50 was 20.8 µM (inactive) in [13]; 18.8 µM (inactive) in experiment [14]; 23.7 µM (inactive) in experiment [15]; 17.7 µM (inactive) in experiment [16]; 18.1 µM (inactive) in experiment [17]; 22.1 µM (inactive) in [18]. For the same molecule, the GI50 in [19] is 16.7 µM (inactive); in [20], 36 µM (inactive).
